Marks after values point to notes of the source that are not given here.
assay: Determination of bio-accumulation: urinary clearance pharmacokinetic study in rats; conditions: male Sprague Dawley rats, 73 micro Moles per kg oral gavage, urine by fluorine NMR, exponential least squares curve fitting

Row | Structure (SMILES) | T ½ (h) (renal half-life)
1 | N.O=C(O)C(F)(F)C(F)OC(F)(F)C(F)(F)C(F)(F)F (stereo not drawn) [Compound 3, C3F7—O—CFH—CF2COONH4] | 11
2 | N.O=C(O)C(F)OC(F)(F)C(F)(F)C(F)(F)OC(F)(F)F (stereo not drawn) [Compound 2, CF3—O—CF2—CF2—CF2—O—CHF—COONH4] | 11
3 | N.O=C(O)C(F)(F)C(F)(F)C(F)(F)C(F)(F)C(F)(F)C(F)(F)C(F)(F)F [Compound C-1, C7F15COONH4, reference compound] | ~550
4 | N.O=C(O)C(F)(F)C(F)OC(F)(F)C(F)(F)C(F)(F)OC(F)(F)F (stereo not drawn) [Compound 1, CF3—O—CF2—CF2—CF2—O—CHF—CF2—COONH4] | 12

More lines, now with the values ahead:

Row | T ½ (h) (renal half-life) | Structure (SMILES)
5 | 8 | N.O=C(O)C(F)(F)C(F)(F)C(F)(F)OC(F)C(F)(F)F (stereo not drawn) [Compound 5, CF3—CFH—O—(CF2)3—COONH4]
6 | 31 | N.O=C(O)C(F)(F)C(F)(F)OC(F)(F)C(F)(F)C(F)(F)C(F)(F)F [Compound C-3, C4F9—O—CF2—CF2—COONH4, reference compound]
7 | 24 | N.O=C(O)C(F)(F)C(F)(F)C(F)(F)C(F)(F)C(F)(F)OC(F)C(F)(F)F (stereo not drawn) [Compound 4, CF3—CFH—O—(CF2)5—COONH4]
8 | 10 | N.O=C(O)C(F)(F)OC(F)(F)C(F)(F)C(F)(F)OC(F)(F)F [Compound C-2, CF3—O—(CF2)3—O—CF2—COONH4, reference compound]

same assay, conditions: male Sprague Dawley rats, 73 micro Moles per kg oral gavage; no parent compound observed in the urine

Row | T ½ (h) (renal half-life), based on elimination of the major metabolite C3F7—O—CHFCOO− | Structure (SMILES)
9 | 13* h | N.O=C(O)COC(F)(F)C(F)OC(F)(F)C(F)(F)C(F)(F)F (stereo not drawn) [Compound 6, C3F7—O—CFH—CF2—O—CH2—COONH4]

Reference: patent US8119750B2, “Explosion taming surfactants for the production of perfluoropolymers” (3M Innovative Properties Company, priority 2006, dated 2012)
